Results reported in patent publication US7425579B2, “Methods for inhibiting activity of polyamine transporters” (Universite Laval, priority 1998, dated 2008).

What was measured:
[1] = Bioavailability of BNSD-X in drinking water: plasma and erythrocyte concentrations; format: in vivo, CD-1 mice; details: for Erythrocyte concentration, Spermidine / Erythrocyte concentration, Spermine / Plasma concentration, BNSD-X / Plasma concentration, Putrescine / Plasma concentration, Spermidine / Plasma concentration, Spermine: mean±S.E.
Experimental: To determine the bioavailability of BNSD-X, escalating doses of BNSD-X were dissolved in the drinking water (0, 0.25, 0.5, 1, 2 and 4%, w/v) and were made available to CD-1 mice (n=6/group) ad libitum. Animals were sacrificed after 96 h, and blood was immediately collected to determine the concentration of BNSD-X and polyamines in plasma and erythrocytes by HPLC using the dansylation method (Kabra et al. (1986) J. Chromatogr. 380:19-32).
The suitability of BNSD-X as an in vivo inhibitor of polyamine transport was next assessed in the mouse. We first determined the bioavailability of the compound by adding escalating doses of BNSD-X (0, 0.25, 0.5, 1.0, 2.0 and 4.0% (w/v)) in the drinking water of CD-1 mice. Mice were sacrificed after 4 d and the concentration of BNSD-X and polyamines was determined in plasma and erythrocytes (Tables 3 and 4). […] The plasma concentration reached by the chronic drinking of a 1% (w/v) solution of BNSD-X is thus approximately equal to the Ki value of the drug as an inhibitor of spermidine uptake in breast cancer cells (see Table 1). The drug had no effect on the plasma concentration of either putrescine, spermidine or spermine. […] These pharmacokinetic properties indicate that BNSD-X can be administered by a very convenient route to animals up to a dose sufficient in principle to inhibit the major fraction of the uptake of spermidine from the plasma.

[2] = system: CD-1 mice; assay: Chronic toxicity of BNSD-X, 1% in drinking water for 14 d; format: in vivo; details: 1% (w/v) in drinking water
Experimental: (§1) To assess the relative toxicity of BNSD-X, the drug was administered as a 1% (w/v) solution in the drinking water to CD-1 mice with ad libitum access for 14 d. Mice were weighed every other day during the experiment. At the end of the experiment, mice were sacrificed, and organs (kidneys, liver, and spleen) were immediately weighed. Organs were then saved in 10% formalin for morphological examination by an in-house pathologist at the CHUL Research Center (Quebec City, Canada). Acute and subacute oral toxicity of BNSD-X was also separately determined by administering the drug by gavage (0-5 g/kg body weight).
The chronic toxicity of BNSD-X was next evaluated by allowing CD-1 mice to drink a 1% (w/v) solution of the drug for 14 d, and then sacrificing animals for the histological examination of the liver, kidneys and spleen.

[3] = system: mice; assay: Acute and subacute oral toxicity of BNSD-X by gavage; format: in vivo
Experimental: as §1
Orally administered polyamines (at ≧0.6 g/kg/day) can have deleterious neurological effects and induce lesions on internal organs (Til et al. (1997) Food Chem Toxicol. 35:337-348.). In order to assess the acute and subacute toxicity of BNSD-X as an orally delivered hexaamine, the effects of gavage with solid BNSD-X pellets was first examined in mice.

[4] = system: CHO-K1 cells; assay: Determination of intracellular polyamine contents in CHO-K1 cells; format: cell-based, Chinese hamster
Experimental: At the indicated time, cells were harvested for the determination of putrescine (A), spermidine (B) and spermine contents (C). Data are presented as the mean±SD for triplicate cultures from one representative experiment; […] At the indicated time intervals, medium was removed, cell monolayers were rinsed twice: with 10 ml of ice-cold Ca^2+/Mg^2+-free phosphate-buffered saline (PBS) (2.7 mM KCl, 1.5 mM KH2PO4, 8.1 mM Na2HPO4, 137 mM NaCl), and cells were harvested by low-speed centrifugation (2400 g for 5 min at 4° C.). […] Polyamine content was then determined by ion-pair reverse phase HPLC with fluorometric detection after post-column derivatization with o-phthaldialdehyde as described (U.S. Pat. No. 6,083,496). […] Pat. No. 6,083,496).

[5] = system: CHO-K1 cells; assay: Reversal of DFMO-induced cytostasis by exogenous spermidine in CHO-K1 cells; format: cell-based, Chinese hamster
Experimental: FIGS. 8A and 8B are graphs representing the time course of the effect of a compound used in a method according to a preferred embodiment of the invention on rescue of DFMO-induced cytostasis by exogenous spermidine. In particular, at time zero, T-47D (panel A) or CHO-K1 (panel B) were seeded at 1×10^4 or 5×10^3 cells/well, respectively, in medium containing 1 mM aminoguanidine, plus either 0.3 μM spermidine (Spd, ●), 2 mM DFMO (□), Spd+DFMO (▪), 50 μM (A) or 100 μM (B) BNSD-X (Δ), BNSD-X+Spd (▴), BNSD-X+DFMO (□), BNSD-X+Spd+DFMO (▾), or vehicle only (∘). At the indicated time, total DNA content/well was determined. Data are presented as the mean±SD for triplicate cultures from one representative experiment;
To determine the ability of polyamine transport antagonists to potentiate DFMO-induced inhibition of cell proliferation in the presence of exogenous polyamines, cells were grown for the indicated period in growth medium supplemented with 1 mM aminoguanidine, and either DFMO (1 to 5 mM), the indicated transport inhibitor (50 or 100 μM), or the combination thereof, as well as increasing concentrations of spermidine (0.1 to 300 μM). Fresh medium was added every other day, and cell mass was determined at various time points during the period of exponential growth, or at the end of the experimental period. For the latter experiments, the FBS supplement was replaced with dextran-coated charcoal-treated FBS (5%, v/v) plus 0.5 μg/ml insulin in the case of T-47D, ZR-75-1 and MCF-7 cells (U.S. Pat. No. 6,083,496).

[6] = Plasma level of BNSD-X after gavage; format: in vivo, mice; details: solid BNSD-X, 1 g/kg body weight by gavage
[7] = 0.25% (w/v) BNSD-X in drinking water, 96 h
[8] = 0.50% (w/v) BNSD-X in drinking water, 96 h
[9] = 1.0% (w/v) BNSD-X in drinking water, 96 h

Question: For NCCCN(CCCN)Cc1ccc(CN(CCCN)CCCN)cc1 [28a, N,N,N′,N′-tetrakis-(3-aminopropyl)-p-diaminoxylene], which “Erythrocyte concentration, Spermidine” value [1, 7] is on record?
Answer: Its value is 1975 ± 236 nmol/L packed erythrocytes.

Question: What about the “Erythrocyte concentration, Spermine” value [1, 7] of the same compound?
Answer: The value was 60 ± 14 nmol/L packed erythrocytes.

Question: What about the “Plasma concentration, BNSD-X” value [1, 7] of the same compound?
Answer: The value was 6 ± 3 nM.

Question: What about the “Plasma concentration, Putrescine” value [1, 7] of the same compound?
Answer: Its value is 108 ± 11 nM.

Question: What about the “Plasma concentration, Spermidine” value [1, 7] of the same compound?
Answer: The value was 147 ± 6 nM.

Question: What about the “Plasma concentration, Spermine” value [1, 7] of the same compound?
Answer: The value was 24 ± 1 nM.

Question: What about the “Erythrocyte concentration, Spermidine” value [1, 8] of the same compound?
Answer: The value was 2762 ± 560 nmol/L packed erythrocytes.

Question: What about the “Erythrocyte concentration, Spermine” value [1, 8] of the same compound?
Answer: Its value is 95 ± 12 nmol/L packed erythrocytes.

Question: And the “Plasma concentration, BNSD-X” value [1, 8]?
Answer: Its value is 32 ± 6 nM.

Question: And the “Plasma concentration, Putrescine” value [1, 8]?
Answer: Its value is 106 ± 10 nM.

Question: What about the “Plasma concentration, Spermidine” value [1, 8] of the same compound?
Answer: Its value is 137 ± 18 nM.

Question: What about the “Plasma concentration, Spermine” value [1, 8] of the same compound?
Answer: The value was 31 ± 6 nM.

Question: And the “Erythrocyte concentration, Spermidine” value [1, 9]?
Answer: Its value is 2079 ± 291 nmol/L packed erythrocytes.

Question: What about the “Erythrocyte concentration, Spermine” value [1, 9] of the same compound?
Answer: Its value is 83 ± 23 nmol/L packed erythrocytes.

Question: What about the “Plasma concentration, BNSD-X” value [1, 9] of the same compound?
Answer: The value was 129 ± 33 nM.

Question: What about the “Plasma concentration, Putrescine” value [1, 9] of the same compound?
Answer: The value was 117 ± 19 nM.

Question: And the “Plasma concentration, Spermidine” value [1, 9]?
Answer: Its value is 168 ± 15 nM.

Question: What about the “Plasma concentration, Spermine” value [1, 9] of the same compound?
Answer: Its value is 38 ± 3 nM.

Question: What about the water consumption ([1]; BNSD-X concentrations higher than 1.0% (2.0 and 4.0%) in drinking water) of the same compound?
Answer: The water consumption was “decreased drastically”.

Question: What about the “effect on the plasma concentration of putrescine, spermidine or spermine” value ([1]; BNSD-X in drinking water, 96 h) of the same compound?
Answer: The value was “no effect”.

Question: And the accumulation into erythrocytes ([1]; BNSD-X up to 1.0% in drinking water)?
Answer: Its accumulation into erythrocytes is “did not accumulate into erythrocytes”.

Question: What about the oral absorption ([1]; in drinking water) of the same compound?
Answer: The oral absorption was “readily absorbed orally”.

Question: And the “behavior and general body appearance” value [2]?
Answer: The value was “no incidence on the behavior nor general body appearance of the animals”.

Question: What about the “histological morphology of the liver, kidney and spleen” value ([2]; light microscopy) of the same compound?
Answer: Its value is “no observable differences”.

Question: And the “adverse effect on animal behavior, body weight, body features and gross anatomy of kidneys, liver or spleen” value ([3]; gavage, up to 5.0 g/kg body weight)?
Answer: The value was “No external sign of sign of adverse effect”.

Question: What about the LD50 ([3]; oral gavage with solid BNSD-X pellets) of the same compound?
Answer: Its LD50 is greater than 5 g/body weight.

Question: And the “reduction of intracellular spermidine content by BNSD-X alone” value ([4]; 100 μM, over the first 2 days of incubation)?
Answer: Its value is “about 50%”.

Question: And the “effect on intracellular putrescine content” value ([4]; single agent)?
Answer: Its value is “quickly led to putrescine depletion”.

Question: And the “effect on intracellular spermine content” value ([4]; up to 4 days)?
Answer: The value was “no significant effect on spermine content”.

Question: And the “effect on the antiproliferative action of DFMO in the nominal absence of exogenous polyamines, CHO-K1” value ([5]; 100 μM BNSD-X, 2 mM DFMO)?
Answer: Its value is “strongly potentiated the antiproliferative effect of DFMO”.

Question: What about the “effect on spermidine-mediated reversal of DFMO-induced growth inhibition, CHO-K1” value ([5]; DFMO-treated CHO-K1 cells with extracellular spermidine, data not shown) of the same compound?
Answer: Its value is “afforded increased resistance to exogenous spermidine”.

Question: What about the plasma half-life [6] of the same compound?
Answer: Its plasma half-life is greater than 6 h.

Question: And the “plasma concentration after gavage” value ([6]; after 1 h, n=5)?
Answer: The value was 450 ± 71 nM.
